Results taken from patent US8440724B2, “Inhibiting neurotransmitter reuptake” (Mayo Foundation for Medical Education and Research, priority 2008, dated 2013).
Entries after “also recorded” stand apart in the source; their conditions may differ. Like-named read-outs stand apart in the source and are kept apart here.

Columns and labels:
Male Sprague-Dawley rats = assay: Forced swim test in rats; format: in vivo, rat
Summary of the method: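 Male Sprague-Dawley rats got a 15 min pretest swim, then a 5-minute test 24 h later. Immobility (floating, only head-keeping movements) and swimming scored as total counts per 5-min session; ANOVA with Tukey post-hoc test.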

hERG = hERG (Homo sapiens, UniProt Q12809); assay: hERG assay: block of rubidium ion (Rb+) efflux from cells expressing hERG; settings: for Blocking of hERG channel compared with PRC200-SS: in words
Sequence of hERG (Q12809 whole entry): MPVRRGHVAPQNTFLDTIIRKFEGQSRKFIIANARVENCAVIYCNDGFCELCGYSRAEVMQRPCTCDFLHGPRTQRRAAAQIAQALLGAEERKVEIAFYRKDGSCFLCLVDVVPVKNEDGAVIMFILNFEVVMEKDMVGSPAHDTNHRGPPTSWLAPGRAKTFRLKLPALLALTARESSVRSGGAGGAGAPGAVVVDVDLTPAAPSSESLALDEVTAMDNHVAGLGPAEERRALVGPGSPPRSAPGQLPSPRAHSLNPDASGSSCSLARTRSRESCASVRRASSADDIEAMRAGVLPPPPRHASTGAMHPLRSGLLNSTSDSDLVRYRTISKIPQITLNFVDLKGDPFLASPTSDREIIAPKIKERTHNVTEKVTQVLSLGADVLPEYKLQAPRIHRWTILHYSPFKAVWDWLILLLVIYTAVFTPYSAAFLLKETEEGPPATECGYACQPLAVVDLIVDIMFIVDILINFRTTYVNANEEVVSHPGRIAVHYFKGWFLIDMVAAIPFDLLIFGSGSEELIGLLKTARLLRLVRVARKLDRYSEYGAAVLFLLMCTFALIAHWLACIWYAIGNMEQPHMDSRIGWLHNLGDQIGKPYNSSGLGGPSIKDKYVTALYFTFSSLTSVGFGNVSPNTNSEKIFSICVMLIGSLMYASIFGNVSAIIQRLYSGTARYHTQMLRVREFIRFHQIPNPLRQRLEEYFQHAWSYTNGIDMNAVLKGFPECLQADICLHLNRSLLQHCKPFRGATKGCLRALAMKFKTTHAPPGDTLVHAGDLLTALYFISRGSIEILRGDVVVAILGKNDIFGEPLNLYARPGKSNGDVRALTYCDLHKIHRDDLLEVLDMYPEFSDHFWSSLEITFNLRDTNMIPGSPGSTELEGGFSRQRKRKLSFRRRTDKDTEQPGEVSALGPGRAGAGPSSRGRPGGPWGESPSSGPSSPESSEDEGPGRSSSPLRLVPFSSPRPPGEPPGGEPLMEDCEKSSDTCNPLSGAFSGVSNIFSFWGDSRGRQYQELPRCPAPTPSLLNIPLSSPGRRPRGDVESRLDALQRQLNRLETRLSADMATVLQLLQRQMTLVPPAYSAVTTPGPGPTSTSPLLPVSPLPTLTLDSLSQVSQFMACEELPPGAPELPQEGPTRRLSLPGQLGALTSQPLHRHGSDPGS
Procedure: Human “ether-a-go-go” (hERG) is an ion channel. Blockade of this channel can be predictive of causing cardiac arrhythmias in humans. hERG assays were performed to measure the ability of a compound to block rubidium ion (Rb^+) efflux from cells expressing hERG. Cells were pre-loaded with Rb^+, incubated with test compound, and then exposed to a buffer that opens the channel and allows the efflux of ions. Compounds as powder were dissolved in 100% DMSO to prepare 100 mM stock solutions. […] The stocks were stored at 23° C.
The range of doses for the test compounds was 30 nM through 100,000 nM.

CYP2D6 = target: T1, CYP2D6 (Homo sapiens, UniProt P10635); assay: CYP2D6 inhibition, CYP2D6/AMMC kit (BD Biosciences), fluorescent substrate; format: in vitro ADME; settings: for Potency of inhibition at CYP2D6, in words: compared with PRC200-SS
T1 construct: purchased BD Biosciences 459200
T1 sequence (P10635 whole entry): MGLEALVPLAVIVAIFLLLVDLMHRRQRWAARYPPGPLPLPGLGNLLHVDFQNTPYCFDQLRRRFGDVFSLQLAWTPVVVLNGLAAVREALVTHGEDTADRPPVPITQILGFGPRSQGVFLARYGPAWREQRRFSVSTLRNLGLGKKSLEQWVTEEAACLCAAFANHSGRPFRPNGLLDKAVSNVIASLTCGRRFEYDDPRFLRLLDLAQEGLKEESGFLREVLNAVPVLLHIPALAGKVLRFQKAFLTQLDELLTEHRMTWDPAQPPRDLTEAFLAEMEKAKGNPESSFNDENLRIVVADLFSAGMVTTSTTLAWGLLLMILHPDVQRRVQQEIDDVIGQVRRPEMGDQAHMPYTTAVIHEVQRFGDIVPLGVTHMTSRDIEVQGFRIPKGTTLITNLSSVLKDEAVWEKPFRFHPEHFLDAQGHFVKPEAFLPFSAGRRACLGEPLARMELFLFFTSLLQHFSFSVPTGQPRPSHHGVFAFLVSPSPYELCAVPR
Excerpt: This kit includes the use of a fluorescent P450 substrate (AMMC or 3-[2-(N,N-diethyl-N-methylamino)ethyl]-7-methoxy-4-methylcoumarin) and recombinant human P450.

[1] = target: human serotonin transporter (Homo sapiens, UniProt P31645); assay: Inhibition of [3H]5-HT transport into HEK-293 cells expressing the human transporter
Sequence of human serotonin transporter (P31645 whole entry): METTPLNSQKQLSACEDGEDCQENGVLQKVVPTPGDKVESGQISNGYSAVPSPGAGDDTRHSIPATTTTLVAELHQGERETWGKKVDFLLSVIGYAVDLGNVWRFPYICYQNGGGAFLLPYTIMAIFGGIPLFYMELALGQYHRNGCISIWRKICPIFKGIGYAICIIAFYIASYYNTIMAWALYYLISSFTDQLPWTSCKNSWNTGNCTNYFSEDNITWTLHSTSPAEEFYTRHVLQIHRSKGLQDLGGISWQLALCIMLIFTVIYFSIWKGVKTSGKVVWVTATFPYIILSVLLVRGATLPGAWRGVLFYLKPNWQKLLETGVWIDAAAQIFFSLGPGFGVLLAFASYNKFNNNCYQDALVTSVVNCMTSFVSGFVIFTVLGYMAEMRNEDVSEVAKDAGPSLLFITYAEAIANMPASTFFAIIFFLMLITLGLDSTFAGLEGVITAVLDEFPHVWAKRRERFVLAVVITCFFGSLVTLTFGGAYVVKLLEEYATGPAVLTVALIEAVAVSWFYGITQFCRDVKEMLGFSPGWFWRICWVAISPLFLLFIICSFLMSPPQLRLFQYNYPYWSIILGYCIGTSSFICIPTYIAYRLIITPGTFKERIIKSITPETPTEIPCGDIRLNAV

[2] = target: T2, human dopamine transporter (hDAT) (Homo sapiens, UniProt Q01959); assay: Radioligand binding to cloned hDAT, [3H]WIN35428, HEK-293 cell membranes; settings: for Binding at hDAT compared to PRC200-SS: in words
T2 construct: expressed in transfected cells; host or cells: HEK-293, stably transfected
T2 sequence (Q01959 whole entry): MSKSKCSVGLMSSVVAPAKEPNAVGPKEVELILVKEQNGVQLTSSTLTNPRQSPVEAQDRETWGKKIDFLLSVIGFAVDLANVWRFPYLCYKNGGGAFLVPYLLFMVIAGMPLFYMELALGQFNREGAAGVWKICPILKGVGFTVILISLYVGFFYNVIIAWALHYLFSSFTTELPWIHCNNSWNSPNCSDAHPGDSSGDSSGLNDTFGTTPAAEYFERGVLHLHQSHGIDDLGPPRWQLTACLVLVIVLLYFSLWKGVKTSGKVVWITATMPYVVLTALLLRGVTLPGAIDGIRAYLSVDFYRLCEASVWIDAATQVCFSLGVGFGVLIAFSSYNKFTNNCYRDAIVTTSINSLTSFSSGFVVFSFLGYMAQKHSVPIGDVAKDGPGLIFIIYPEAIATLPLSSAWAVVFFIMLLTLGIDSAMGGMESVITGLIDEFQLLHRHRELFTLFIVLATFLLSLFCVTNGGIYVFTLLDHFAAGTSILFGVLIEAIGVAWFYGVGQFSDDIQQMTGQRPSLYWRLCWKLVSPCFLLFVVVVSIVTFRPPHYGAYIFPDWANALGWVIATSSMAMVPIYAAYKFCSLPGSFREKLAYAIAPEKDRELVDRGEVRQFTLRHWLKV

male C57BL/6J mice = assay: Tail suspension test (TST) in mice; format: in vivo, mouse; settings: for Duration of immobility in TST vs saline: 5 mg/kg IP, FIG. 10E
Procedure: When mice are suspended by their tail, there is an initial period of agitation, followed by immobility. This test identifies antidepressant compounds, which decrease the duration of immobility.
Test compounds were prepared by formulating the compounds with a pharmaceutically acceptable carrier such as saline. […] Each mouse was then subjected to the tail-suspension test (TST). Each mouse (n>3) was suspended by its tail 45 cm above the table top with the use of adhesive tape placed 1 cm from the tip of its tail. Behavior was scored every 5 seconds throughout the 6-minute test as either mobile or immobile (FIG. 10A-D) or total duration of immobility during the 6-minute test (FIGS. 10E and 10H). Mice were considered immobile only when hanging passively and completely motionless. Scores for each behavior were expressed as total counts per 6-minute session.

mice = assay: Locomotor activity in motility chamber, mice; format: in vivo, mouse; settings: doses that exhibited positive effects in the TST, FIG. 11
[3] = Geometric Mean ± SEM, HCl salts, read-out: Equilibrium Dissociation Constant (KD) for Transporter Binding, hDAT (D)
[4] = mice, 5 and 10 mg/kg IP, 30 minutes before testing

| SMILES | Immobility in forced swim test vs saline (Male Sprague-Dawley rats; 5 mg/kg IP) | Swimming in forced swim test vs saline (Male Sprague-Dawley rats; 5 mg/kg IP) | Antidepressant activity in forced swim test compared with imipramine (15 mg/kg IP) (Male Sprague-Dawley rats; 5 mg/kg IP, FIG. 12A) | IC50 (hERG) | Ki [1] | Kd [2, 3] | Kd [2] | Binding at hDAT compared to PRC200-SS [2] | further results |
| --- | --- | --- | --- | --- | --- | --- | --- | --- | --- |
| CNC[C@H](c1ccc2ccccc2c1)[C@@H](N=[N+]=[N-])c1ccccc1 [MCJ001-N3-RS, (2S,3R)-3-azido-N-methyl-2-(naphthalen-2-yl)-3-phenylpropan-1-amine] | statistically (P<0.04) less immobility | statistically (P<0.04) more swimming behavior | antidepressant activity that was similar to that observed in rats treated with the positive control | 39200 nM | 48 ± 10 nM | 190 ± 20 nM | – | – | IC50 (CYP2D6): 4000 nM |
| CNC[C@@H](c1ccc2ccccc2c1)[C@H](F)c1ccccc1 [MCJ001-F-SR, (2R,3S)-3-fluoro-N-methyl-2-(naphthalen-2-yl)-3-phenylpropan-1-amine] | statistically (P<0.04) less immobility | statistically (P<0.04) more swimming behavior | antidepressant activity that was similar to that observed in rats treated with the positive control | 94000 nM | 150 nM | – | 36 ± 6 nM | potently binds to hDAT, in the range of that seen with PRC200-SS | Blocking of hERG channel compared with PRC200-SS (hERG): weaker than PRC200-SS at blocking this channel; Immobility in TST (counts per 6-minute session) vs saline (male C57BL/6J mice; mice, 10 mg/kg IP, FIG. 10C): significantly (P<0.033) reduced immobility; Mobility in TST (counts per 6-minute session) vs saline (male C57BL/6J mice; mice, 10 mg/kg IP, FIG. 10C): significantly (P≦0.033) increased mobility |
| CNC[C@H](c1ccc2ccccc2c1)[C@H](OCCCCCO[C@H](c1ccccc1)[C@H](CNC)c1ccc2ccccc2c1)c1ccccc1 [MCJ001-Dimer5-SS, (2S,2′S,3S,3′S)-3,3′-(pentane-1,5-diylbis(oxy))bis(N-methyl-2-(naphthalen-2-yl)-3-phenylpropan-1-amine)] | – | – | – | – | 14 ± 2 nM | 113 ± 6 nM | – | – | Duration of immobility in TST vs saline (male C57BL/6J mice; mice): except MCJ002-NH2-SS and MCJ001-Dimer5-SS, significantly reduced the time that the animals were immobile |
| CNC[C@@H](c1ccc2ccccc2c1)[C@H](N=[N+]=[N-])c1ccccc1 [MCJ001-N3-SR, (2R,3S)-3-azido-N-methyl-2-(naphthalen-2-yl)-3-phenylpropan-1-amine] | – | – | – | – | 46 ± 6 nM | 1440 ± 70 nM | – | – | – |
| CNC[C@H](c1ccc2ccccc2c1)[C@@H](F)c1ccccc1 [MCJ001-F-RS, (2S,3R)-3-fluoro-N-methyl-2-(naphthalen-2-yl)-3-phenylpropan-1-amine] | – | – | antidepressant activity that was similar to that observed in rats treated with the positive control | 92400 nM | 3.5 ± 0.9 nM | – | 19 ± 2 nM | Enhanced binding to hDAT | Immobility in forced swim test, 5 mg/kg IP vs 5 mg/kg PO of the same compound (Male Sprague-Dawley rats): statistically (P<0.02) more swimming and less immobility; Swimming in forced swim test, 5 mg/kg IP vs 5 mg/kg PO of the same compound (Male Sprague-Dawley rats): statistically (P<0.02) more swimming and less immobility; Climbing in forced swim test vs saline (Male Sprague-Dawley rats; 5 mg/kg IP): statistically (P<0.02) more swimming and climbing; Immobility in forced swim test vs saline (Male Sprague-Dawley rats; 5 mg/kg IP, 5 mg/kg): statistically (P<0.04) less immobility; also recorded: statistically (P<0.02) less immobility; Swimming in forced swim test vs saline (Male Sprague-Dawley rats; 5 mg/kg IP, 5 mg/kg): statistically (P<0.04) more swimming behavior; also recorded: statistically (P<0.02) more swimming and climbing; Immobility in forced swim test vs imipramine (15 mg/kg IP) (Male Sprague-Dawley rats; 5 mg/kg IP, FIG. 12A): statistically (P<0.04) less immobility than rats treated with imipramine; Climbing in forced swim test vs saline (Male Sprague-Dawley rats; 5 mg/kg PO): statistically (P<0.02) more swimming and climbing; Immobility in forced swim test vs saline (Male Sprague-Dawley rats; 5 mg/kg PO): statistically (P<0.02) less immobility; Swimming in forced swim test vs saline (Male Sprague-Dawley rats; 5 mg/kg PO): statistically (P<0.02) more swimming and climbing; Blocking of hERG channel compared with PRC200-SS (hERG): weaker than PRC200-SS at blocking this channel; Immobility in TST (counts per 6-minute session) vs saline (male C57BL/6J mice; mice, 1, 2.5, and 5 mg/kg IP, FIG. 10B): significantly (P<0.005) reduced immobility; Mobility in TST (counts per 6-minute session) vs saline (male C57BL/6J mice; mice, 2.5 and 5 mg/kg IP, FIG. 10B): significantly (P<0.005) increased mobility; Potency of inhibition at CYP2D6, in words (CYP2D6): markedly reduced the potency of inhibition at CYP2D6; IC50 (CYP2D6; recombinant human P450, AMMC substrate, read-out: Mean CYP2D6 (IC50)): 160 nM; Effect on locomotor activity (mice): Only d-amphetamine caused a significant effect on locomotor activity |
| CN(C)C[C@H](c1ccc2ccccc2c1)[C@H](N)c1ccccc1 [MCJ002-NH2-SS, (2S,3S)-N1,N1-dimethyl-2-(naphthalen-2-yl)-3-phenylpropane-1,3-diamine] | statistically (P<0.04) less immobility | statistically (P<0.04) more swimming behavior | antidepressant activity that was similar to that observed in rats treated with the positive control | 67900 nM | – | – | 4.2 ± 0.2 nM | several fold more potent binding at hDAT | Duration of immobility in TST vs saline (male C57BL/6J mice; mice): except MCJ002-NH2-SS and MCJ001-Dimer5-SS, significantly reduced the time that the animals were immobile; Occupancy of hDAT binding sites ([2]; when the compound occupies 95% of hSERT binding sites, calculation based on occupancy theory): 92% |
| CNCC(c1ccc2ccccc2c1)C(F)c1ccccc1 (racemic) [MCJ001-F-(±)-RR, (2R,3R/2S,3S)-3-fluoro-N-methyl-2-(naphthalen-2-yl)-3-phenylpropan-1-amine] | – | – | – | – | 18 ± 3 nM | – | 140 ± 10 nM | – | Immobility in TST (counts per 6-minute session) vs saline (male C57BL/6J mice; mice, 5 and 10 mg/kg IP): significantly (P≦0.016) reduced immobility; Mobility in TST (counts per 6-minute session) vs saline (male C57BL/6J mice; [4]): significantly (P≦0.016) increased mobility |
| CNC[C@H](c1ccc2ccccc2c1)[C@H](OC)c1ccccc1 [MCJ001-OMe-SS, (2S,3S)-3-methoxy-N-methyl-2-(naphthalen-2-yl)-3-phenylpropan-1-amine] | statistically (P<0.04) less immobility | statistically (P<0.04) more swimming behavior | antidepressant activity that was similar to that observed in rats treated with the positive control | – | 12 ± 2 nM | – | 40.6 ± 0.8 nM | – | Immobility in TST (counts per 6-minute session) vs saline (male C57BL/6J mice; mice, 15 mg/kg orally (gastric gavage), FIG. 10A): significantly (P<0.02) reduced immobility; Immobility in TST (counts per 6-minute session) vs saline (male C57BL/6J mice; mice, 5 and 10 mg/kg IP): significantly (P<0.02) reduced immobility; Mobility in TST (counts per 6-minute session) vs saline (male C57BL/6J mice; [4]): significantly (P<0.02) increased mobility; Potency of inhibition at CYP2D6, in words (CYP2D6): markedly reduced the potency of inhibition at CYP2D6; Effect on locomotor activity (mice): Only d-amphetamine caused a significant effect on locomotor activity |
